Results from patent US7022843B1, “β,β′-dihydroxy meso-substituted chlorins, isobacteriochlorins, and bacteriochlorins” (priority 1999, dated 2006).
Several values for one entry are separate records, joined by “and”; a condition that tells them apart may be missing. Equal entries are not always repeated. Where two headings read alike, the source gives them in different places.

Key:
L1210 cells [1] = assay: Phototoxicity in L1210 cells, MTT viability assay; type: cell-based; settings: for LD50: phototoxicity, L1210 cells
Method: The above described compounds were tested in vitro for phototoxicity and dark toxicity in L1210 cells as described in the Example section below. Twenty four compounds which were tested for cytotoxicity are listed in Table 3 below along with BPD-MA.
(§1) Phototoxicity was determined with L11210 cells in the presence of the compound as follows: the L1210 cells were exposed to varying concentrations of the compounds in 96-well microtiter plates for one hour at 37° C. and 5% CO2. No fetal calf serum (FCS) was added at this time. The plate was then illuminated for one hour after which a 10% aqueous FCS solution was added to the wells. The plates were then returned to the CO2 incubator overnight. After incubation, the cells were assayed for viability using the MTT assay (Mossman, T. J. Immunol. Meth. 1983, 65, 55).

L1210 cells [2] = assay: Dark cytotoxicity in L1210 cells (plates wrapped in aluminum foil); type: cell-based
Method: The above compounds were also tested for dark toxicity. Dark toxicity refers to the toxicity of the drug to cells in the absence of light. This toxicity is, therefore, not due to singlet oxygen mediated cellular damage.
as §1
Dark cytotoxicity was determined while the plates were wrapped in aluminum foil while under the light source.

[3] = 1 h exposure without FCS, 1 h illumination, MTT

Row | Molecule | LD50 (L1210 cells [1]; [3]) | LD50 (L1210 cells [1]; Table 4) | LD50dark (L1210 cells [2]) | LD20dark (L1210 cells [2]; L1210 cells, absence of light) | LD50dark (L1210 cells [2]; L1210 cells, absence of light) | times more potent than BPD-MA (L1210 cells [1]; fold potency based on LD50) | times more potent than HpD (L1210 cells [1]; fold potency based on LD50) | times more potent than Photofrin™ (L1210 cells [1]; fold potency based on LD50) | LD50 (L1210 cells [1]; 1 h exposure without FCS, 1 h illumination, MTT, listed as diphenyl-2,3-dihydroxychlorin)
1 | OC1c2nc(c(-c3ccccc3)c3ccc([nH]3)c(-c3ccccc3)c3nc(c(-c4ccccc4)c4ccc([nH]4)c2-c2ccccc2)C=C3)C1O (stereo not shown) [Compound 3, H2TPC(OH)2] | 2.78 M and 1800 ng/mL | 1800 ng/mL | 19000 ng/mL | 7000 ng/mL | – | – | – | – | –
2 | O=[N+]([O-])c1cccc(-c2c3nc(c(-c4cccc([N+](=O)[O-])c4)c4ccc([nH]4)c(-c4cccc([N+](=O)[O-])c4)c4nc(c(-c5cccc([N+](=O)[O-])c5)c5ccc2[nH]5)C(O)C4O)C=C3)c1 (stereo not shown) [Compound 4, T(m-NO2)PC(OH)2] | 5.43 M and 4500 ng/mL | 4500 ng/mL | 15000 ng/mL | 4500 ng/mL | – | – | – | – | –
3 | OC1c2nc(c(-c3ccc(Br)cc3)c3ccc([nH]3)c(-c3ccc(Br)cc3)c3nc(c(-c4ccc(Br)cc4)c4ccc([nH]4)c2-c2ccc(Br)cc2)C=C3)C1O (stereo not shown) [Compound 5, T(p-Br)PC(OH)2] | 6.22 M and 6000 ng/mL | 6000 ng/mL | 8000 ng/mL | 1900 ng/mL | – | – | – | – | –
4 | OC1c2nc(c(-c3cccc(Br)c3)c3ccc([nH]3)c(-c3cccc(Br)c3)c3nc(c(-c4cccc(Br)c4)c4ccc([nH]4)c2-c2cccc(Br)c2)C=C3)C1O (stereo not shown) [Compound 6, T(m-Br)PC(OH)2] | 4.15 M and 4000 ng/mL | 4000 ng/mL | 4000 ng/mL | 1500 ng/mL | – | – | – | – | –
5 | OC1c2nc(c(-c3cccc(F)c3)c3ccc([nH]3)c(-c3cccc(F)c3)c3nc(c(-c4cccc(F)c4)c4ccc([nH]4)c2-c2cccc(F)c2)C=C3)C1O (stereo not shown) [Compound 7, T(m-F)PC(OH)2] | 6.87 M and 5000 ng/mL | 5000 ng/mL | 6000 ng/mL | 1500 ng/mL | – | – | – | – | –
6 | OC1c2nc(c(-c3ccccc3F)c3ccc([nH]3)c(-c3ccccc3F)c3nc(c(-c4ccccc4F)c4ccc([nH]4)c2-c2ccccc2F)C=C3)C1O (stereo not shown) [Compound 8, T(o-F)PC(OH)2] | 4.17 M and 3000 ng/mL | 3000 ng/mL | 15000 ng/mL | 5000 ng/mL | – | – | – | – | –
7 | OC1c2nc(c(-c3c(F)c(F)c(F)c(F)c3F)c3ccc([nH]3)c(-c3c(F)c(F)c(F)c(F)c3F)c3nc(c(-c4c(F)c(F)c(F)c(F)c4F)c4ccc([nH]4)c2-c2c(F)c(F)c(F)c(F)c2F)C=C3)C1O (stereo not shown) [Compound 9, TF5PC(OH)2] | 1.79 M and 1800 ng/mL | 100 ng/mL | 12000 ng/mL | 5000 ng/mL | – | – | – | – | –
8 | Oc1ccc(-c2c3nc(c(-c4ccc(O)cc4)c4ccc([nH]4)c(-c4ccc(O)cc4)c4nc(c(-c5ccc(O)cc5)c5ccc2[nH]5)C(O)C4O)C=C3)cc1 (stereo not shown) [Compound 10, T(p-OH)PC(OH)2] | 4.92 M and 3500 ng/mL | 3500 ng/mL | 15000 ng/mL | 5000 ng/mL | – | – | – | – | –
9 | Oc1cccc(-c2c3nc(c(-c4cccc(O)c4)c4ccc([nH]4)c(-c4cccc(O)c4)c4nc(c(-c5cccc(O)c5)c5ccc2[nH]5)C(O)C4O)C=C3)c1 (stereo not shown) [Compound 11, T(m-OH)PC(OH)2] | 0.0211 M and 15 ng/mL | 15 ng/mL | 12500 ng/mL | 10000 ng/mL | – | – | – | – | –
10 | COC(=O)c1ccc(-c2c3nc(c(-c4ccc(C(=O)OC)cc4)c4ccc([nH]4)c(-c4ccc(C(=O)OC)cc4)c4nc(c(-c5ccc(C(=O)OC)cc5)c5ccc2[nH]5)C(O)C4O)C=C3)cc1 (stereo not shown) [Compound 12, T(p-CO2Me)PC(OH)2] | 0.136 M and 120 ng/mL | 120 ng/mL | – | 3000 ng/mL | 15000 ng/mL | – | – | – | –
11 | COc1cccc(-c2c3nc(c(-c4cccc(OC)c4)c4ccc([nH]4)c(-c4cccc(OC)c4)c4nc(c(-c5cccc(OC)c5)c5ccc2[nH]5)C(O)C4O)C=C3)c1 (stereo not shown) [Compound 15, T(m-OCH3)PC(OH)2] | 1.3 M and 1000 ng/mL | – | – | – | – | – | – | – | –
12 | COc1cc(OC)cc(-c2c3nc(c(-c4cc(OC)cc(OC)c4)c4ccc([nH]4)c(-c4cc(OC)cc(OC)c4)c4nc(c(-c5cc(OC)cc(OC)c5)c5ccc2[nH]5)C(O)C4O)C=C3)c1 (stereo not shown) [Compound 16, T(m,m′-OCH3)PC(OH)2] | 2.25 M and 2000 ng/mL | 2000 ng/mL | 12000 ng/mL | 5000 ng/mL | – | – | – | – | –
13 | COc1cc(-c2c3nc(c(-c4ccc(O)c(OC)c4)c4ccc([nH]4)c(-c4ccc(O)c(OC)c4)c4nc(c(-c5ccc(O)c(OC)c5)c5ccc2[nH]5)C(O)C4O)C=C3)ccc1O (stereo not shown) [Compound 17, T(m-OCH3,p-OH)PC(OH)2] | 0.0361 M and 30 ng/mL | 30 ng/mL | 4500 ng/mL | 500 ng/mL | – | – | – | – | –
14 | COc1cc(-c2c3nc(c(-c4cc(OC)c(OC)c(OC)c4)c4ccc([nH]4)c(-c4cc(OC)c(OC)c(OC)c4)c4nc(c(-c5cc(OC)c(OC)c(OC)c5)c5ccc2[nH]5)C(O)C4O)C=C3)cc(OC)c1OC (stereo not shown) [Compound 18, T(m,p,m′-OCH3)PC(OH)2] | 0.0198 M and 20 ng/mL | 20 ng/mL | 20000 ng/mL | 7500 ng/mL | – | – | – | – | –
15 | Cc1ccc(-c2c3nc(c(-c4ccc(C)cc4)c4ccc([nH]4)c(-c4ccc(C)cc4)c4nc(c(-c5ccc(C)cc5)c5ccc2[nH]5)C(O)C4O)C=C3)cc1 (stereo not shown) [Compound 21, T(p-CH3)PC(OH)2] | 9.94 M and 7000 ng/mL | 7000 ng/mL | 15000 ng/mL | 5000 ng/mL | – | – | – | – | –
16 | Cc1cc(C)c(-c2c3nc(c(-c4c(C)cc(C)cc4C)c4ccc([nH]4)c(-c4c(C)cc(C)cc4C)c4nc(c(-c5c(C)cc(C)cc5C)c5ccc2[nH]5)C(O)C4O)C=C3)c(C)c1 (stereo not shown) [Compound 22, T(o,p,o′-CH3)PC(OH)2] | 12.3 M and 10000 ng/mL | 10000 ng/mL | 18000 ng/mL | 7500 ng/mL | – | – | – | – | –
17 | O=S(=O)(O)c1ccc(-c2c3nc(c(-c4ccc(S(=O)(=O)O)cc4)c4ccc([nH]4)c(-c4ccc(S(=O)(=O)O)cc4)c4nc(c(-c5ccc(S(=O)(=O)O)cc5)c5ccc2[nH]5)C(O)C4O)C=C3)cc1 (stereo not shown) [Compound 23, T(p-SO3H)PC(OH)2] | 1.11 M and 1000 ng/mL | 1000 ng/mL | >>20000 ng/mL | >20000 ng/mL | – | – | – | – | –
18 | CC(C)(C)c1ccc(-c2c3nc(c(-c4ccc(C(C)(C)C)cc4)c4ccc([nH]4)c(-c4ccc(C(C)(C)C)cc4)c4nc(c(-c5ccc(C(C)(C)C)cc5)c5ccc2[nH]5)C(O)C4O)C=C3)cc1 (stereo not shown) [Compound 24, T(p-t-Bu)PC(OH)2] | 6.88 M and 6000 ng/mL | 6000 ng/mL | 7000 ng/mL | 2000 ng/mL | – | – | – | – | –
19 | OC1c2cc3ccc([nH]3)c(-c3ccccc3)c3nc(cc4ccc([nH]4)c(-c4ccccc4)c(n2)C1O)C=C3 (stereo not shown) [Compound 25, diphenyl-2,3-dihydroxychlorin] | 0.0024 M and 1.2 ng/mL | 1.2 ng/mL | 5000 ng/mL | 1500 ng/mL | – | 10 | 700 | 450 | 1.2 ng/mL
20 | Oc1ccc(-c2c3nc(c(-c4ccccc4)c4ccc([nH]4)c(-c4ccccc4)c4nc(c(-c5ccccc5)c5ccc2[nH]5)C=C4)C(O)C3O)cc1 (stereo not drawn) [Compound 27, meso-5-(p-hydroxyphenyl)-10,15,20-triphenyl-2,3-dihydroxychlorin] | 0.0211 M and 14 ng/mL | 14 ng/mL | 9000 ng/mL | 2000 ng/mL | – | – | – | – | –
21 | O=[N+]([O-])c1ccc(-c2c3nc(c(-c4ccccc4)c4ccc([nH]4)c(-c4ccccc4)c4nc(c(-c5ccccc5)c5ccc2[nH]5)C=C4)C(O)C3O)cc1 (stereo not drawn) [Compound 28, meso-5-(p-nitrophenyl)-10,15,20-triphenyl-2,3-dihydroxychlorin] | 2.42 M and 2000 ng/mL | 2000 ng/mL | 18000 ng/mL | 2000 ng/mL | – | – | – | – | –
22 | OC1c2nc(c(-c3ccccc3)c3ccc([nH]3)c(-c3ccccc3)c3nc(c(-c4ccccc4)c4ccc([nH]4)c2-c2ccccc2)C(O)C3O)C1O (stereo not shown) [Compound 29, H2TPB(OH)4] | 1.03 M and 700 ng/mL | 700 ng/mL | 7500 ng/mL | 2500 ng/mL | – | – | – | – | –
23 | COc1cc(OC)c(-c2c3nc(c(-c4c(OC)cc(OC)cc4OC)c4ccc([nH]4)c(-c4c(OC)cc(OC)cc4OC)c4nc(c(-c5c(OC)cc(OC)cc5OC)c5ccc2[nH]5)C(O)C4O)C(O)C3O)c(OC)c1 (stereo not shown) [Compound 30, T(o,p,o′-OCH3)PB(OH)4] | 18 ng/mL | 18 ng/mL | 18000 ng/mL | 1200 ng/mL | – | – | – | – | –
24 | T(p-OCH3)PC(OH)2 [Compound 14] | 7.81 M and 6000 ng/mL | 6000 ng/mL | >20000 ng/mL | 9000 ng/mL | – | – | – | – | –
25 | T(p-OCOEt)PC(OH)2 [Compound 13] | – | 1000 ng/mL | 20000 ng/mL | 8000 ng/mL | – | – | – | – | –
